From patent US5112806A, “Antibiotic, mersacidin, a process for the preparation thereof and the use thereof as a pharmaceutical” (Hoechst Aktiengesellschaft, priority 1988, dated 1992)

Key:
S. aureus SG 511 [1] = assay: In vivo activity against S. aureus SG 511 infection in mice
Streptococcus faecalis [2] = assay: MIC, growth inhibition in vitro (second entry, no. 27); format: cell-based; conditions: Streptococcus faecalis (Table 3 no. 27)
Text: (§1) The biological properties of mersacidin as the MIC values required for inhibition of the growth of various microorganisms are listed in Table 3.

[3] = Animal mortality after subcutaneous dose; format: in vivo; conditions: laboratory mice; 500 mg/kg subcutaneous, highest concentration tested
S. aureus SG 511 [4] = assay: In vivo activity against S. aureus SG 511 infection in mice; conditions: S. aureus SG 511, 1.75 × 10^9 CFU/mouse; for Number of mice treated/cured / percentage rate of cure: 9.37 mg/kg × 3, s.c.
Description: On subcutaneous administration in a dose of 9.37 and 25.00 mg/kg to laboratory mice infected experimentally with Staphylococcus aureus SG 511 and S. aureus 710 (resistant to methicillin), […].
In vivo activity of mersacidin against S. aureus SG 511
infection in mice compared with vancomycin.
Inoculation medium used: 1.75 × 10^9 CFU/mouse

S. aureus SG 511 [5] = assay: In vivo activity against S. aureus SG 511 abscess in rats; conditions: infecting dose 2 × 10^-9 CFU in 5% mucin under the skin, 50 mg/kg × 7 days
Description: In vivo activity of mersacidin against S. aureus SG 511 abscess in rats, compared with vancomycin.
Infecting dose : […] in 5% mucin, injected under the skin.
Treatment: 50 mg/kg × 7 days

S. epidermidis MRSE = assay: MIC, growth inhibition in vitro; format: cell-based
Text: as §1

Streptococcus pneumoniae = assay: MIC, growth inhibition in vitro; format: cell-based
Text: as §1

Group A Streptococci = assay: MIC, growth inhibition in vitro; format: cell-based
Text: as §1

Listeria monocyctogenes = assay: MIC, growth inhibition in vitro; format: cell-based
Text: as §1

Cornybacterium JK = assay: MIC, growth inhibition in vitro; format: cell-based
Text: as §1

Streptococcus faecalis [6] = assay: MIC, growth inhibition in vitro; format: cell-based; conditions: Streptococcus faecalis (Table 3 no. 17)
Text: as §1

S. aureus 789 = assay: MIC, growth inhibition in vitro; format: cell-based
Text: as §1

S. aureus 20240 = assay: MIC, growth inhibition in vitro; format: cell-based
Text: as §1

S. aureus E 88 = assay: MIC, growth inhibition in vitro; format: cell-based
Text: as §1

S. aureus 503 = assay: MIC, growth inhibition in vitro; format: cell-based
Text: as §1

S. epidermidis MSSE = assay: MIC, growth inhibition in vitro; format: cell-based
Text: as §1

[7] = system: Staphylococcus aureus SG 511; assay: MIC, growth inhibition in vitro; format: cell-based
Text: as §1

S. aureus 3066 = assay: MIC, growth inhibition in vitro; format: cell-based
Text: as §1

S. aureus 20666 = assay: MIC, growth inhibition in vitro; format: cell-based
Text: as §1

Group G Streptococci = assay: MIC, growth inhibition in vitro; format: cell-based
Text: as §1

Bacillus subtilis = assay: MIC, growth inhibition in vitro; format: cell-based
Text: as §1

S. aureus 722 = assay: MIC, growth inhibition in vitro; format: cell-based
Text: as §1

S. aureus E 712 = assay: MIC, growth inhibition in vitro; format: cell-based
Text: as §1

Group B Streptococci = assay: MIC, growth inhibition in vitro; format: cell-based
Text: as §1

S. aureus 285 = assay: MIC, growth inhibition in vitro; format: cell-based
Text: as §1

S. aureus 710 = assay: MIC, growth inhibition in vitro; format: cell-based
Text: as §1

[8] = system: Peptostreptococci species; assay: MIC, growth inhibition in vitro; format: cell-based
Text: as §1

Str. D 21777 = assay: MIC, growth inhibition in vitro; format: cell-based
Text: as §1

Micrococcus luteus = assay: MIC, growth inhibition in vitro; format: cell-based
Text: as §1

Propionibacterium genes = assay: MIC, growth inhibition in vitro; format: cell-based
Text: as §1

[9] = system: Staphylococcus aureus 209P; assay: MIC, growth inhibition in vitro; format: cell-based
Text: as §1

Group C Streptococci = assay: MIC, growth inhibition in vitro; format: cell-based
Text: as §1

Streptococcus bovis = assay: MIC, growth inhibition in vitro; format: cell-based
Text: as §1

Streptococcus viridans = assay: MIC, growth inhibition in vitro; format: cell-based
Text: as §1

S. aureus 20424 = assay: MIC, growth inhibition in vitro; format: cell-based
Text: as §1

S. aureus R 85 = assay: MIC, growth inhibition in vitro; format: cell-based
Text: as §1

S. aureus E 710 (MRSA) = assay: In vivo activity against S. aureus E 710 (MRSA) in mice; conditions: S. aureus E 710 (MRSA), 5 × 10^9 CFU/mouse (1 MLD); for Approx. ED50 / Approx. ED90: s.c.
Description: On subcutaneous administration in a dose of 9.37 and 25.00 mg/kg to laboratory mice infected experimentally with Staphylococcus aureus SG 511 and S. aureus 710 (resistant to methicillin), […]. […]

[10] = mice, S. aureus SG 511, 1.75 × 10^9 CFU/mouse, 0.80 mg/kg × 3, s.c.
[11] = mice, S. aureus SG 511, 1.75 × 10^9 CFU/mouse, 1.60 mg/kg × 3, s.c.
[12] = mice, S. aureus SG 511, 1.75 × 10^9 CFU/mouse, 3.12 mg/kg × 3, s.c.
[13] = mice, S. aureus SG 511, 1.75 × 10^9 CFU/mouse, 6.25 mg/kg × 3, s.c.
[14] = mice, S. aureus SG 511, 1.75 × 10^9 CFU/mouse, 12.5 mg/kg × 3, s.c.
[15] = mice, S. aureus SG 511, 1.75 × 10^9 CFU/mouse, 18.75 mg/kg × 3, s.c.

Compound: mersacidin
- activity in the in vivo system of laboratory mice (S. aureus SG 511 [1]; mice infected with S. aureus SG 511 and S. aureus 710 (resistant to methicillin), 9.37 and 25.00 mg/kg s.c.): good activity
- Number of mice treated/cured (S. aureus SG 511 [1]; [10]): 0/27
- percentage rate of cure (S. aureus SG 511 [1]; [10]): 0%
- Number of mice treated/cured (S. aureus SG 511 [1]; [11]): 3/24
- percentage rate of cure (S. aureus SG 511 [1]; [11]): 12%
- Number of mice treated/cured (S. aureus SG 511 [1]; [12]): 18/27
- percentage rate of cure (S. aureus SG 511 [1]; [12]): 67%
- Number of mice treated/cured (S. aureus SG 511 [1]; [13]): 38/40
- percentage rate of cure (S. aureus SG 511 [1]; [13]): 95%
- Approx. ED90 (S. aureus SG 511 [1]; mice, S. aureus SG 511, 1.75 × 10^9 CFU/mouse, s.c.): ~5.38 mg/kg × 3
- MIC values (Streptococcus faecalis [2]): 64,0 μg/ml
- animal mortality [3]: no animal mortality was observed
- Number of mice treated/cured (S. aureus SG 511 [4]): 53/53
- percentage rate of cure (S. aureus SG 511 [4]): 100%
- Approx. ED50 (S. aureus SG 511 [4]; s.c.): ~2.59 mg/kg × 3
- reduces bacterial counts by (S. aureus SG 511 [5]): 1.4 log10 CFU/ml
- MIC values (S. epidermidis MRSE): 0,5-16,0 μg/ml
- MIC values (Streptococcus pneumoniae): 1,0-4,0 μg/ml
- MIC values (Group A Streptococci): 0,5-8,0 μg/ml
- MIC values (Listeria monocyctogenes): 16,0-64,0 μg/ml
- MIC values (Cornybacterium JK): 2,0-4,0 μg/ml
- MIC values (Streptococcus faecalis [6]): 0,0975-0,195 μg/ml
- MIC values (S. aureus 789): 0.78 to 1.56 µg/mL
- MIC values (S. aureus 20240): 3.12 to 6.25 µg/mL
- MIC values (S. aureus E 88): 6.25 to 12.50 µg/mL
- MIC values (S. aureus 503): 0.78 to 1.56 µg/mL
- MIC values (S. epidermidis MSSE): 0,5-16,0 μg/ml
- MIC values [7]: 0,39-0,78 μg/ml
- MIC values (S. aureus 3066): 12.50 to 25.00 µg/mL
- MIC values (S. aureus 20666): 3,12-6,25 μg/ml
- MIC values (Group G Streptococci): 2,0-8,0 μg/ml
- MIC values (Bacillus subtilis): 0,39-0,78 μg/ml
- MIC values (S. aureus 722): 3.12 to 6.25 µg/mL
- MIC values (S. aureus E 712): 3,12-6,25 μg/ml
- MIC values (Group B Streptococci): 1,0-8,0 μg/ml
- MIC values (S. aureus 285): 0,78-1,56 μg/ml
- MIC values (S. aureus 710): 0,39-0,78 μg/ml
- MIC values [8]: 0,5-8,0 μg/ml
- MIC values (Str. D 21777): 1,56-3,12 μg/ml
- MIC values (Micrococcus luteus): 0,0975-0,195 μg/ml
- MIC values (Propionibacterium genes): 1,0-16,0 μg/ml
- MIC values [9]: 0.78 to 1.56 µg/mL
- MIC values (Group C Streptococci): 2,0-64 μg/ml
- MIC values (Streptococcus bovis): 4,0-32,0 μg/ml
- MIC values (Streptococcus viridans): 0,5-32,0 μg/ml
- MIC values (S. aureus 20424): 1.56 to 3.12 µg/mL
- MIC values (S. aureus R 85): 0,39-0,78 μg/ml
- Number of mice treated/cured (S. aureus E 710 (MRSA); 6.25 mg/kg × 3, s.c.): 1/10
- percentage rate of cure (S. aureus E 710 (MRSA); 6.25 mg/kg × 3, s.c.): 10%
- Number of mice treated/cured (S. aureus E 710 (MRSA); 9.37 mg/kg × 3, s.c.): 4/10
- percentage rate of cure (S. aureus E 710 (MRSA); 9.37 mg/kg × 3, s.c.): 40%
- Number of mice treated/cured (S. aureus E 710 (MRSA); 12.50 mg/kg × 3, s.c.): 10/16
- percentage rate of cure (S. aureus E 710 (MRSA); 12.50 mg/kg × 3, s.c.): 63%
- Number of mice treated/cured (S. aureus E 710 (MRSA); 25.00 mg/kg × 3, s.c.): 12/12
- percentage rate of cure (S. aureus E 710 (MRSA); 25.00 mg/kg × 3, s.c.): 100%
- Approx. ED50 (S. aureus E 710 (MRSA)): ~10.81 mg/kg × 3
- Approx. ED90 (S. aureus E 710 (MRSA)): ~19.59 mg/kg × 3

Compound: CN[C@H](CC(C)C)C(=O)N[C@H]1C(=O)N[C@@H](CC(N)=O)C(=O)N[C@H]2C(=O)N[C@H]3C(=O)N[C@H](C(=O)N[C@H](C(=O)O)c4cc(O)cc(O)c4-c4cc3ccc4O)[C@H](O)c3ccc(c(Cl)c3)Oc3cc2cc(c3O[C@@H]2O[C@H](CO)[C@@H](O)[C@H](O)[C@H]2O[C@H]2C[C@](C)(N)[C@H](O)[C@H](C)O2)Oc2ccc(cc2Cl)[C@H]1O [Vancomycin, reference compound]
- Number of mice treated/cured (S. aureus SG 511 [1]; [12]): 2/41
- percentage rate of cure (S. aureus SG 511 [1]; [12]): 5%
- Number of mice treated/cured (S. aureus SG 511 [1]; [13]): 13/44
- percentage rate of cure (S. aureus SG 511 [1]; [13]): 29%
- Number of mice treated/cured (S. aureus SG 511 [1]; [14]): 59/61
- percentage rate of cure (S. aureus SG 511 [1]; [14]): 97%
- Number of mice treated/cured (S. aureus SG 511 [1]; [15]): 71/71
- percentage rate of cure (S. aureus SG 511 [1]; [15]): 100%
- Number of mice treated/cured (S. aureus SG 511 [4]): 48/53
- percentage rate of cure (S. aureus SG 511 [4]): 85%
- Approx. ED50 (S. aureus SG 511 [4]; s.c.): ~7.20 mg/kg × 3
- Approx. ED90 (S. aureus SG 511 [4]; s.c.): ~9.37 mg/kg × 3
- reduces bacterial counts by (S. aureus SG 511 [5]): 0.79 log10 CFU/ml
- Number of mice treated/cured (S. aureus E 710 (MRSA); 6.25 mg/kg × 3, s.c.): 0/11
- percentage rate of cure (S. aureus E 710 (MRSA); 6.25 mg/kg × 3, s.c.): 0%
- Number of mice treated/cured (S. aureus E 710 (MRSA); 12.50 mg/kg × 3, s.c.): 3/11
- percentage rate of cure (S. aureus E 710 (MRSA); 12.50 mg/kg × 3, s.c.): 27%
- Number of mice treated/cured (S. aureus E 710 (MRSA); 25.00 mg/kg × 3, s.c.): 14/21
- percentage rate of cure (S. aureus E 710 (MRSA); 25.00 mg/kg × 3, s.c.): 67%
- Number of mice treated/cured (S. aureus E 710 (MRSA); 37.00 mg/kg × 3, s.c.): 6/6
- percentage rate of cure (S. aureus E 710 (MRSA); 37.00 mg/kg × 3, s.c.): 100%
- Approx. ED50 (S. aureus E 710 (MRSA)): ~18.94 mg/kg × 3
- Approx. ED90 (S. aureus E 710 (MRSA)): ~32.01 mg/kg × 3
